Test results as given in PubChem BioAssay AID2060908 (Molecular Pharmacology Branch, DTP, NCI, 2025).

Tested on: 186277-243-T-J2-PDC complex spheroids, viability
Experiment: Anticancer human tumor 186277-243-T-J2-PDC patient-derived colon adenocarcinoma cell line growth inhibition [RAS]
Settings: for IC50: curve of first compound; for viability, T/C: stronger effect = lower value
How it was run: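 Agents were tested in combination matrices in half-log decrements from a top concentration at or near clinical Cmax (10 microM if undetermined). Targets were multi-cell spheroids of tumour lines plus HUVEC and MSC stromal cells.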

[1] = second compound 0.000949 µM, first compound 0.0316 µM
[2] = second compound 0.000949 µM, first compound 0.1 µM
[3] = second compound 0.000949 µM, first compound 0.316 µM
[4] = second compound 0.000949 µM, first compound 1 µM
[5] = second compound 0.003 µM, first compound 0.0316 µM
[6] = second compound 0.003 µM, first compound 0.1 µM
[7] = second compound 0.003 µM, first compound 0.316 µM
[8] = second compound 0.003 µM, first compound 1 µM
[9] = second compound 0.00949 µM, first compound 0.0316 µM
[10] = second compound 0.00949 µM, first compound 0.1 µM
[11] = second compound 0.00949 µM, first compound 0.316 µM
[12] = second compound 0.00949 µM, first compound 1 µM
[13] = second compound 0.03 µM, first compound 0.0316 µM
[14] = second compound 0.03 µM, first compound 0.1 µM
[15] = second compound 0.03 µM, first compound 0.316 µM
[16] = second compound 0.03 µM, first compound 1 µM
[17] = second compound 0.0949 µM, first compound 0.0316 µM
[18] = second compound 0.0949 µM, first compound 0.1 µM
[19] = second compound 0.0949 µM, first compound 0.316 µM
[20] = second compound 0.0949 µM, first compound 1 µM
[21] = second compound 0.3 µM, first compound 0.0316 µM
[22] = second compound 0.3 µM, first compound 0.1 µM
[23] = second compound 0.3 µM, first compound 0.316 µM
[24] = second compound 0.3 µM, first compound 1 µM
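Also: spheroids exposed to compounds for 7 days before viability read.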

For `CC(=O)OC12COC1CC(O)C1(C)C(=O)C(O)C3=C(C)C(OC(=O)C(O)C(NC(=O)OC(C)(C)C)c4ccccc4)CC(O)(C(OC(=O)c4ccccc4)C21)C3(C)C` (stereo unspecified) + CCn1c(-c2cc(N3CCN(C)CC3)cnc2C(C)OC)c2c3cc(ccc31)-c1csc(n1)CC(NC(=O)C1CC1C)C(=O)N1CCCC(N1)C(=O)OCC(C)(C)C2, the IC50 (second compound 0.000949 µM) was < 31.6 nM, the IC50 (second compound 0.003 µM) was < 31.6 nM and the IC50 (second compound 0.00949 µM) was < 31.6 nM. For the same compound, the IC50 (second compound 0.03 µM) was < 31.6 nM, the IC50 (second compound 0.0949 µM) was < 31.6 nM and the IC50 (second compound 0.3 µM) was < 31.6 nM. It also gave a viability, T/C [1] of 3.93%, a viability, T/C [2] of 3.88% and a viability, T/C [3] of 3.15%. It also gave a viability, T/C [4] of 3.35%, a viability, T/C (second compound 0.000949 µM, first compound 3.16 µM) of 3.1% and a viability, T/C (second compound 0.000949 µM, first compound 10 µM) of 2.87%. It also gave a viability, T/C [5] of 4.18%, a viability, T/C [6] of 3.41% and a viability, T/C [7] of 3.5%. It also gave a viability, T/C [8] of 3.44%, a viability, T/C (second compound 0.003 µM, first compound 3.16 µM) of 3.13% and a viability, T/C (second compound 0.003 µM, first compound 10 µM) of 3.15%. It also gave a viability, T/C [9] of 4.39%, a viability, T/C [10] of 3.52% and a viability, T/C [11] of 3.8%. For the same compound, the viability, T/C [12] was 3.26%, the viability, T/C (second compound 0.00949 µM, first compound 3.16 µM) was 3.42% and the viability, T/C (second compound 0.00949 µM, first compound 10 µM) was 3.14%. For the same compound, the viability, T/C [13] was 3.02%, the viability, T/C [14] was 3.1% and the viability, T/C [15] was 2.91%. For the same compound, the viability, T/C [16] was 3.18%, the viability, T/C (second compound 0.03 µM, first compound 3.16 µM) was 2.79% and the viability, T/C (second compound 0.03 µM, first compound 10 µM) was 2.64%. It also gave a viability, T/C [17] of 2.92%, a viability, T/C [18] of 2.71% and a viability, T/C [19] of 3.02%. For the same compound, the viability, T/C [20] was 2.38%, the viability, T/C (second compound 0.0949 µM, first compound 3.16 µM) was 2.59% and the viability, T/C (second compound 0.0949 µM, first compound 10 µM) was 2.18%. For the same compound, the viability, T/C [21] was 2.53%, the viability, T/C [22] was 2.47% and the viability, T/C [23] was 2.58%. For the same compound, the viability, T/C [24] was 2.35%, the viability, T/C (second compound 0.3 µM, first compound 3.16 µM) was 2.5% and the viability, T/C (second compound 0.3 µM, first compound 10 µM) was 2.28%.

With `CCc1c2c(nc3ccc(O)cc13)-c1cc3c(c(=O)n1C2)COC(=O)[C@]3(O)CC` + CCn1c(-c2cc(N3CCN(C)CC3)cnc2C(C)OC)c2c3cc(ccc31)-c1csc(n1)CC(NC(=O)C1CC1C)C(=O)N1CCCC(N1)C(=O)OCC(C)(C)C2 the IC50 (second compound 0.000949 µM) was 5.27 nM, the IC50 (second compound 0.003 µM) was 1.96 nM and the IC50 (second compound 0.00949 µM) was < 0.949 nM. The IC50 (second compound 0.03 µM) was < 0.949 nM, the IC50 (second compound 0.0949 µM) was < 0.949 nM and the IC50 (second compound 0.3 µM) was < 0.949 nM. For the same compound, the viability, T/C (second compound 0.000949 µM, first compound 0.000949 µM) was 113%, the viability, T/C (second compound 0.000949 µM, first compound 0.003 µM) was 58.7% and the viability, T/C (second compound 0.000949 µM, first compound 0.00949 µM) was 39.5%. The viability, T/C (second compound 0.000949 µM, first compound 0.03 µM) was 23.4%, the viability, T/C (second compound 0.000949 µM, first compound 0.0949 µM) was 9.6% and the viability, T/C (second compound 0.000949 µM, first compound 0.3 µM) was 6.83%. For the same compound, the viability, T/C (second compound 0.003 µM, first compound 0.000949 µM) was 69.5%, the viability, T/C (second compound 0.003 µM, first compound 0.003 µM) was 37.6% and the viability, T/C (second compound 0.003 µM, first compound 0.00949 µM) was 22.2%. The viability, T/C (second compound 0.003 µM, first compound 0.03 µM) was 13.2%, the viability, T/C (second compound 0.003 µM, first compound 0.0949 µM) was 5.72% and the viability, T/C (second compound 0.003 µM, first compound 0.3 µM) was 4.11%. The viability, T/C (second compound 0.00949 µM, first compound 0.000949 µM) was 18.6%, the viability, T/C (second compound 0.00949 µM, first compound 0.003 µM) was 10.9% and the viability, T/C (second compound 0.00949 µM, first compound 0.00949 µM) was 9.28%. The viability, T/C (second compound 0.00949 µM, first compound 0.03 µM) was 6.45%, the viability, T/C (second compound 0.00949 µM, first compound 0.0949 µM) was 3.6% and the viability, T/C (second compound 0.00949 µM, first compound 0.3 µM) was 2.17%. For the same compound, the viability, T/C (second compound 0.03 µM, first compound 0.000949 µM) was 9.49%, the viability, T/C (second compound 0.03 µM, first compound 0.003 µM) was 6.27% and the viability, T/C (second compound 0.03 µM, first compound 0.00949 µM) was 5.72%. For the same compound, the viability, T/C (second compound 0.03 µM, first compound 0.03 µM) was 4.05%, the viability, T/C (second compound 0.03 µM, first compound 0.0949 µM) was 2.52% and the viability, T/C (second compound 0.03 µM, first compound 0.3 µM) was 1.56%. The viability, T/C (second compound 0.0949 µM, first compound 0.000949 µM) was 5.21%, the viability, T/C (second compound 0.0949 µM, first compound 0.003 µM) was 4.44% and the viability, T/C (second compound 0.0949 µM, first compound 0.00949 µM) was 4.37%. The viability, T/C (second compound 0.0949 µM, first compound 0.03 µM) was 2.94%, the viability, T/C (second compound 0.0949 µM, first compound 0.0949 µM) was 2.29% and the viability, T/C (second compound 0.0949 µM, first compound 0.3 µM) was 1.3%. The viability, T/C (second compound 0.3 µM, first compound 0.000949 µM) was 4.39%, the viability, T/C (second compound 0.3 µM, first compound 0.003 µM) was 3.92% and the viability, T/C (second compound 0.3 µM, first compound 0.00949 µM) was 3.85%. For the same compound, the viability, T/C (second compound 0.3 µM, first compound 0.03 µM) was 2.91%, the viability, T/C (second compound 0.3 µM, first compound 0.0949 µM) was 2.37% and the viability, T/C (second compound 0.3 µM, first compound 0.3 µM) was 1.27%.

In the case of `Nc1ccn(C2OC(CO)C(O)C2(F)F)c(=O)n1` (stereo unspecified) + CCn1c(-c2cc(N3CCN(C)CC3)cnc2C(C)OC)c2c3cc(ccc31)-c1csc(n1)CC(NC(=O)C1CC1C)C(=O)N1CCCC(N1)C(=O)OCC(C)(C)C2, the IC50 (second compound 0.000949 µM) is reported as 4.76 nM, the IC50 (second compound 0.003 µM) is reported as < 3.16 nM and the IC50 (second compound 0.00949 µM) is reported as < 3.16 nM. For the same compound, the IC50 (second compound 0.03 µM) was < 3.16 nM, the IC50 (second compound 0.0949 µM) was < 3.16 nM and the IC50 (second compound 0.3 µM) was < 3.16 nM. It also gave a viability, T/C (second compound 0.000949 µM, first compound 0.00316 µM) of 73%, a viability, T/C (second compound 0.000949 µM, first compound 0.01 µM) of 8.42% and a viability, T/C [1] of 6.7%. For the same compound, the viability, T/C [2] was 6.74%, the viability, T/C [3] was 5.65% and the viability, T/C [4] was 6.26%. For the same compound, the viability, T/C (second compound 0.003 µM, first compound 0.00316 µM) was 48%, the viability, T/C (second compound 0.003 µM, first compound 0.01 µM) was 6.35% and the viability, T/C [5] was 5.14%. It also gave a viability, T/C [6] of 4.45%, a viability, T/C [7] of 4.85% and a viability, T/C [8] of 4.99%. The viability, T/C (second compound 0.00949 µM, first compound 0.00316 µM) was 12.7%, the viability, T/C (second compound 0.00949 µM, first compound 0.01 µM) was 6.13% and the viability, T/C [9] was 4.72%. For the same compound, the viability, T/C [10] was 4.79%, the viability, T/C [11] was 5.02% and the viability, T/C [12] was 4.12%. The viability, T/C (second compound 0.03 µM, first compound 0.00316 µM) was 7.84%, the viability, T/C (second compound 0.03 µM, first compound 0.01 µM) was 5.11% and the viability, T/C [13] was 4.83%. It also gave a viability, T/C [14] of 4.21%, a viability, T/C [15] of 4.75% and a viability, T/C [16] of 3.8%. It also gave a viability, T/C (second compound 0.0949 µM, first compound 0.00316 µM) of 5.28%, a viability, T/C (second compound 0.0949 µM, first compound 0.01 µM) of 4.76% and a viability, T/C [17] of 4.18%. The viability, T/C [18] was 3.97%, the viability, T/C [19] was 3.99% and the viability, T/C [20] was 3.27%. The viability, T/C (second compound 0.3 µM, first compound 0.00316 µM) was 5.42%, the viability, T/C (second compound 0.3 µM, first compound 0.01 µM) was 4.54% and the viability, T/C [21] was 3.86%. For the same compound, the viability, T/C [22] was 3.78%, the viability, T/C [23] was 3.81% and the viability, T/C [24] was 3.23%.
